57 molecules from patent US20220298138A1, “ENZYME INHIBITORS” (KALVISTA PHARMACEUTICALS LIMITED, priority 2019, published 2022) can be followed below.

A word on the IC50: it is the midpoint of a concentration-inhibition curve.

This assay deals with T1, Human Factor XIIa (Homo sapiens, UniProt P00748).
T1 construct: purchased Enzyme Research Laboratories
T1 sequence (P00748 373-615 limits assumed): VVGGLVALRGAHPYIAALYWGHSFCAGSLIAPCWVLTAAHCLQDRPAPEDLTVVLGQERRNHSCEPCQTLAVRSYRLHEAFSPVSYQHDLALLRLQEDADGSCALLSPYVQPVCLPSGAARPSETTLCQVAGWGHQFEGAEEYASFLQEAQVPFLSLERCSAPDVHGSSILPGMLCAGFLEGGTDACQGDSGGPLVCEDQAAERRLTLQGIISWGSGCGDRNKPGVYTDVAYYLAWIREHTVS
Kind of assay: Factor XIIa inhibitory activity in vitro (fluorogenic substrate H-DPro-Phe-Arg-AFC). It counts as biochemical. The conditions noted are these: 25° C., class symbols, read-out: Human FXIIa IC50. The protocol: Determination of the % Inhibition for FXIIa
Human Factor XIIa (Enzyme Research Laboratories) was incubated at 25° C. with the fluorogenic substrate H-DPro-Phe-Arg-AFC and various concentrations of the test compound. Residual enzyme activity (initial rate of reaction) was determined by measuring the change in […] at 410 nm and the IC50 value for the test compound was determined.
For the molecule `Nc1nccc2cc(CNC(=O)[C@H](Cc3ccc(F)c(F)c3)NC(=O)CCn3cc(C(F)(F)F)ccc3=O)ccc12` [Example 3.29], the IC50 lay within 10 to 40 µM.

Consider `CCCCOCC(=O)N[C@@H](Cc1ccc(F)c(F)c1)C(=O)NCc1ccc2c(N)nccc2c1` [Example 3.30], for which the IC50 lay in the range of 10 to 40 µM.

With `Cc1nccn1CCC(=O)N[C@@H](Cc1ccc(F)c(F)c1)C(=O)NCc1ccc2c(N)nccc2c1` [Example 3.31], the IC50 is 3 to 10 µM.

`Nc1nccc2cc(CNC(=O)[C@H](Cc3ccc(F)c(F)c3)NC(=O)Cc3nc(-c4cccnc4)n[nH]3)ccc12` [Example 3.32]: the IC50 was 10 to 40 µM.

Consider `Nc1nccc2cc(CNC(=O)[C@H](Cc3ccc(F)c(F)c3)NC(=O)CN3CCOc4ccccc4C3)ccc12` [Example 3.33], for which the IC50 is 10 to 40 µM.

In the case of `Nc1nccc2cc(CNC(=O)[C@H](Cc3ccc(F)c(F)c3)NC(=O)Cc3ccccn3)ccc12` [Example 3.34], the IC50 was 10 to 40 µM.

For the molecule `Nc1nccc2cc(CNC(=O)[C@H](Cc3ccc(F)c(F)c3)NC(=O)C[C@@H]3CCCO3)ccc12` [Example 3.35], the IC50 is 10 to 40 µM.

For `Nc1nccc2cc(CNC(=O)[C@H](Cc3ccc(F)c(F)c3)NC(=O)C[C@H]3CCCO3)ccc12` [Example 3.36], the IC50 is 10 to 40 µM.

`Nc1nccc2cc(CNC(=O)[C@H](Cc3ccc(F)c(F)c3)NC(=O)CN3CCCC3=O)ccc12` [Example 3.37]: the IC50 lay in the range of 10 to 40 µM.

Consider `Nc1nccc2cc(CNC(=O)[C@H](Cc3ccc(F)c(F)c3)NC(=O)CN3CCCCCC3)ccc12` [Example 3.38], for which the IC50 was in the range of 1 to 3 µM.

As to `Nc1nccc2cc(CNC(=O)[C@H](Cc3ccc(F)c(F)c3)NC(=O)CN3CCCCC3=O)ccc12` [Example 3.39], the IC50 fell in the range of 10 to 40 µM.

On to `CN1CCN(CC(=O)N[C@@H](Cc2ccc(F)c(F)c2)C(=O)NCc2ccc3c(N)nccc3c2)CC1` [Example 3.40], for which the half-inhibitory concentration (IC50) fell in the range of 10 to 40 µM.

With `Nc1nccc2cc(CNC(=O)[C@H](Cc3ccc(F)c(F)c3)NC(=O)CN3CCCC3)ccc12` [Example 3.41], the IC50 was in the range of 1 to 3 µM.

For `CC1CCCC(C)N1CC(=O)N[C@@H](Cc1ccc(F)c(F)c1)C(=O)NCc1cnc2[nH]cc(Cl)c2c1` (stereo partly drawn) [Example 3.101], the IC50 lay within 1 to 3 µM.

For the molecule `CC1CCCC(C)N1CC(=O)N[C@@H](Cc1ccc(F)c(F)c1)C(=O)NCc1ccnc(N)c1` (stereo partly drawn) [Example 3.102], the IC50 was 10 to 40 µM.

Turning to `C[C@@H]1CCC[C@H](C)N1CC(=O)N[C@@H](Cc1ccc(F)c(F)c1)C(=O)NCc1ccc2[nH]cnc2c1` [Example 3.103], the IC50 lay within 10 to 40 µM.

As to `C[C@@H]1CCC[C@H](C)N1CC(=O)N[C@@H](Cc1ccc(F)c(F)c1)C(=O)NCc1ccc2c(N)n[nH]c2c1` [Example 3.104, (2S)—N-[(3-amino-1H-indazol-6-yl)methyl]-3-(3,4-difluorophenyl)-2-{2-[(2R,6S)-2,6-dimethylpiperidin-1-yl]acetamido}propanamide], the IC50 is 10 to 40 µM.

On to `C[C@@H]1CCC[C@H](C)N1CC(=O)N[C@@H](Cc1ccc(F)c(F)c1)C(=O)NCc1ccc2c(N)noc2c1` [Example 3.105, (2S)—N-[(3-amino-1,2-benzoxazol-6-yl)methyl]-3-(3,4-difluorophenyl)-2-{2-[(2R,6S)-2,6-dimethylpiperidin-1-yl]acetamido}propanamide], for which the IC50 is 10 to 40 µM.

As for `CCC(C)[C@H](C(=O)N[C@@H](Cc1ccc(F)c(F)c1)C(=O)NCc1ccc2c(N)nccc2c1)N(C)C` (stereo partly drawn) [Example 5.101], the IC50 was in the range of 3 to 10 µM.

On to `CC(C)N(C)[C@H](C)C(=O)N[C@@H](Cc1ccc(F)c(F)c1)C(=O)NCc1ccc2c(N)nccc2c1` [Example 5.102], for which the IC50 lay in the range of 0.28 to 1 µM.

Take `CC(C(=O)N[C@@H](Cc1ccc(F)c(F)c1)C(=O)NCc1ccc2c(N)nccc2c1)N1CCCC1` (stereo partly drawn) [Example 5.103]: the IC50 is 1 to 3 µM.

In the case of `C[C@@H](C(=O)N[C@@H](Cc1ccc(F)c(F)c1)C(=O)NCc1ccc2c(N)nccc2c1)N(C)C` [Example 5.104], the IC50 is 10 to 40 µM.

For the molecule `C[C@@H]1CCC[C@H](C)N1[C@H](C)C(=O)N[C@@H](Cc1ccc(F)c(F)c1)C(=O)NCc1ccc2c(N)nccc2c1` [Example 5.105], the IC50 was in the range of 0.28 to 1 µM.

Regarding `C[C@@H]1CCC[C@H](C)N1[C@@H](C)C(=O)N[C@@H](Cc1ccc(F)c(F)c1)C(=O)NCc1ccc2c(N)nccc2c1` [Example 5.106], the IC50 was in the range of 3 to 10 µM.

In the case of `CC(C)(C)OC(=O)N[C@H](CCc1ccccc1)C(=O)NCC(=O)NCc1ccc2c(N)nccc2c1` [Example 6.01], the IC50 was 10 to 40 µM.

With `Nc1nccc2cc(CNC(=O)CNC(=O)[C@H](N)CCc3ccccc3)ccc12` [Example 6.02], the IC50 was in the range of 0.28 to 1 µM.

For `CC(C)(C)OC(=O)N[C@H](CCc1ccccc1)C(=O)NC(C)(C)C(=O)NCc1ccc2c(N)nccc2c1` [Example 6.03], the IC50 fell in the range of 10 to 40 µM.

On to `CC[C@H](NC(=O)[C@@H](CCc1ccccc1)NC(=O)OC(C)(C)C)C(=O)NCc1ccc2c(N)nccc2c1` [Example 6.04], for which the IC50 was 10 to 40 µM.

With `CC[C@H](NC(=O)[C@H](N)CCc1ccccc1)C(=O)NCc1ccc2c(N)nccc2c1` [Example 6.05], the 50% inhibitory concentration (IC50) lay within 1 to 3 µM.

As for `CC(C)(NC(=O)[C@H](N)CCc1ccccc1)C(=O)NCc1ccc2c(N)nccc2c1` [Example 6.06], the 50% inhibitory concentration (IC50) was 0.28 to 1 µM.

`CC(C)N[C@H](CCc1ccccc1)C(=O)NCC(=O)NCc1ccc2c(N)nccc2c1` [Example 6.07]: the IC50 lay within 0.28 to 1 µM.

Take `CN[C@H](CCc1ccccc1)C(=O)N[C@@H](Cc1ccccc1)C(=O)NCc1ccc2c(N)nccc2c1` [Example 6.08]: the IC50 lay within 3 to 10 µM.

For the molecule `C[C@H](NC(=O)[C@@H](CCc1ccccc1)NC(=O)c1ccccc1)C(=O)NCc1ccc2c(N)nccc2c1` [Example 6.26], the IC50 was in the range of 10 to 40 µM.

With `CC(C)N[C@H](CCc1ccccc1)C(=O)N[C@@H](C)C(=O)NCc1ccnc(N)c1` [Example 9.09], the half-maximal inhibitory concentration (IC50) was in the range of 3 to 10 µM.

`CC(C)N[C@H](CCc1ccccc1)C(=O)N[C@@H](C)C(=O)NCc1ccc(CN)cc1` [Example 9.10]: the IC50 was in the range of 3 to 10 µM.

For the molecule `COc1ccc(CNC(=O)[C@H](C)NC(=O)[C@@H](CCc2ccccc2)NC(C)C)cc1Cl` [Example 9.11], the half-inhibitory concentration (IC50) fell in the range of 10 to 40 µM.

For `CC(C)N[C@H](CCc1ccccc1)C(=O)N[C@@H](C)C(=O)NCCc1ccnc(N)c1` [Example 9.12], the IC50 was 10 to 40 µM.

Turning to `C[C@H](NC(=O)[C@@H](CCc1ccccc1)NS(C)(=O)=O)C(=O)NCc1ccc2[nH]cc(Cl)c2c1` [Example 9.16], the IC50 lay in the range of 10 to 40 µM.

Regarding `C[C@H](NC(=O)[C@@H](CCc1ccccc1)NC1CCOCC1)C(=O)NCc1ccc2[nH]cc(Cl)c2c1` [Example 9.17], the IC50 is 3 to 10 µM.

In the case of `C[C@H](NC(=O)[C@@H](CCc1ccccc1)NCC(C)(C)C)C(=O)NCc1ccc2[nH]cc(Cl)c2c1` [Example 9.18], the IC50 lay in the range of 0.28 to 1 µM.

Take `CCOC(=O)c1cn(-c2ccc(OC)c(F)c2CNC(=O)[C@H](C)NC(=O)[C@@H](CCc2ccccc2)NC(C)C)nn1` [Example 9.19]: the IC50 is 10 to 40 µM.

Turning to `CC(C)N[C@H](CCc1ccccc1)C(=O)N[C@@H](C)C(=O)NCC1CNc2ccc(Cl)cc2O1` (stereo partly drawn) [Example 9.20], the half-inhibitory concentration (IC50) was in the range of 10 to 40 µM.

As for `C[C@H](NC(=O)[C@@H](CCc1ccccc1)NS(C)(=O)=O)C(=O)NCc1cnc2[nH]cc(Cl)c2c1` [Example 9.21], the IC50 was 10 to 40 µM.

For `CC(NC(=O)[C@@H](CCc1ccccc1)NC1CCOCC1)C(=O)NCc1cnc2[nH]cc(Cl)c2c1` (stereo partly drawn) [Example 9.22], the IC50 is 10 to 40 µM.

Turning to `CC(C)N[C@H](CCc1ccccc1)C(=O)N[C@@H](C)C(=O)NCc1cc2c(Cl)cccc2s1` [Example 9.23], the IC50 lay in the range of 10 to 40 µM.

Turning to `C[C@H](NC(=O)[C@@H](CCc1ccccc1)NCc1ccccc1)C(=O)NCc1ccc2[nH]cc(Cl)c2c1` [Example 9.25], the IC50 was 1 to 3 µM.

Consider `C[C@H](NC(=O)[C@@H](CCc1ccccc1)NCC(C)(C)C)C(=O)NCc1cnc2[nH]cc(Cl)c2c1` [Example 9.26], for which the IC50 fell in the range of 3 to 10 µM.

On to `N[C@H](CCCCN1CCOCC1)C(=O)N1CC[C@H]1C(=O)NCc1ccc2[nH]cc(Cl)c2c1` [Example 10.19], for which the IC50 lay in the range of 3 to 10 µM.

Regarding `CC(C)N[C@H](CCCCN1CCOCC1)C(=O)N1CC[C@H]1C(=O)NCc1ccc2[nH]cc(Cl)c2c1` [Example 10.20], the IC50 lay within 0.28 to 1 µM.

Turning to `CC(C)N[C@H](CCc1ccccc1)C(=O)N[C@@H](Cc1ccc(F)c(F)c1)C(=O)NCc1ccc2c(N)nccc2c1` [Example 12.12], the IC50 is 3 to 10 µM.

Take `CC(C)(C)OC(=O)N[C@H](CCc1ccccc1)C(=O)N1CCC[C@H]1C(=O)NCc1ccc2c(N)nccc2c1` [Example 17.01]: the 50% inhibitory concentration (IC50) was in the range of 3 to 10 µM.

On to `Nc1nccc2cc(CNC(=O)[C@@H]3CCCN3C(=O)[C@H](N)CCc3ccccc3)ccc12` [Example 17.02], for which the IC50 was 0.28 to 1 µM.

Turning to `Nc1nccc2cc(CNC(=O)[C@@H]3CCCCN3C(=O)[C@H](N)CCc3ccccc3)ccc12` [Example 17.03], the 50% inhibitory concentration (IC50) is 1 to 3 µM.

For the molecule `Nc1nccc2cc(CNC(=O)[C@@H]3CCCN(C(=O)[C@H](N)CCc4ccccc4)C3)ccc12` [Example 17.04], the IC50 was in the range of 3 to 10 µM.

In the case of `CCC(C)[C@@H](N)C(=O)N[C@@H](Cc1cccc2ccccc12)C(=O)NCc1ccc2c(N)nccc2c1` (stereo partly drawn) [Example 18.101], the IC50 lay within 1 to 3 µM.

On to `Nc1nccc2cc(CNC(=O)CNC(=O)[C@@H](CCc3ccccc3)NS(=O)(=O)Cc3ccccc3)ccc12` [Example 18.102], for which the IC50 is 1 to 3 µM.

In the case of `CCC(C)[C@H](C(=O)NCC(=O)NCc1ccc2c(N)nccc2c1)N(C)C` (stereo partly drawn) [Example 18.103], the IC50 was 10 to 40 µM.
